Measured values taken from patent US20240358692A1, “TREATMENT OF SCLERODERMA” (Aisa Pharma, Inc., priority 2023, published 2024).

Key:
participants with SSc-RP [1] = test: SHAQ - Alternative Disability Index; assay type: in vivo, human; design: key to SHAQ Alternative Disability Index, In-Clinic Visit (Day 12), Median: mean of 8 category scores, 0 = no difficulty to 3 = unable to do; details: for % change in Alternative Disability Index: SHAQ, mITT Part A; for alternative disability index, Change from Baseline, Mean / alternative disability index, Change from Baseline, Median / alternative disability index, Percent Change from Baseline, Mean / alternative disability index, Percent Change from Baseline, Median / alternative disability index, In Clinic Visit (Day 12), Mean / alternative disability index, In Clinic Visit (Day 12), Median: Modified ITT Population-Part A, tadalafil 5 mg, alone or combined as labelled
Description: The SHAQ is used to calculate a Disability Index to assess the participant qualify of life. The eight categories assessed by the Disability Index are 1) dressing and grooming, 2) arising, 3) eating, 4) walking, 5) hygiene, 6) reach, 7) grip, and 8) common daily activities. For each of these categories, patients report the amount of difficulty they have in performing two or three specific activities.
There are four possible responses for the Disability Index questions: • Without any difficulty=0 • With some difficulty=1 • With much difficulty=2 • Unable to do=3 • The highest score reported by the patient for any component question of the eight categories determines the score for that category. • If a component question is left blank or the response is too ambiguous to assign a score, then the score for that category is determined by the remaining completed question(s). • If all component questions are blank or if more than one answer is given, then follow up with the respondent is required. • If the respondent's mark is between the response columns, then move it to the closest one. If it's directly between the two, move it to the higher one.
The aid and device variables are not used to calculate the alternative disability index; it is calculated by adding the scores for each of the categories and dividing by the number of categories answered. This gives a score in the 0 to 3 range.

participants with SSc-RP [2] = test: SHAQ - Visual Analog Scale - Finger Ulcers; assay type: in vivo, human
Description: The standard, validated, patient reported outcome measures tool for SSc patients, the Scleroderma Health Assessment Questionnaire (SHAQ), will be used to assess the participant qualify of life. Details are attached in the Appendix. The participant quality of life will be scored, and a disability index calculated for each questionnaire completed by the patient at Screening and each in-clinic visit. The absolute change in participant quality of life from baseline to the end of each dosing period will be calculated similar to frequency data as before.
The standard, validated, patient reported outcome measures tool for SSc patients, the SHAQ, was collected at the time points specified in the study schedules (FIG. 2 and FIGS. 4A and 4B) to assess the participant's quality of life. The SHAQ included a Raynaud's VAS that will also be reported separately.

[3] = Any Cilnidipine (N = 17), Day 12, PP Population, Part A
[4] = Cilnidipine 10 mg, SSc patients, PP, Part A
[5] = Cilnidipine 20 mg, SSc patients, PP, Part A
[6] = Pooled Cilnidipine 10 mg and Cilnidipine 10 mg + Tadalafil 5 mg (N = 9), Day 12, PP Population, Part A
[7] = Pooled Cilnidipine (N = 8), Day 12, PP Population, Part A
[8] = Cilnidipine 10 mg (N = 4), Day 12, PP Population, Part A
[9] = Cilnidipine 20 mg (N = 4), Day 12, PP Population, Part A

COCCOC(=O)C1=C(C)NC(C)=C(C(=O)OC/C=C/c2ccccc2)C1c1cccc([N+](=O)[O-])c1 (stereo not drawn) [Cilnidipine]
SHAQ Alternative Disability Index, Change from Baseline, Mean (SD) (participants with SSc-RP [1]; [3]): −0.006 (0.1912) | SHAQ Alternative Disability Index, Change from Baseline, Median (participants with SSc-RP [1]; [3]): 0.000 | SHAQ Alternative Disability Index, In-Clinic Visit (Day 12), Mean (SD) (participants with SSc-RP [1]; [3]): 0.450 (0.4926) | SHAQ Alternative Disability Index, In-Clinic Visit (Day 12), Median (participants with SSc-RP [1]; [3]): 0.250 | SHAQ Alternative Disability Index, Percent Change from Baseline, Mean (SD) (participants with SSc-RP [1]; [3]): 21.32 (100.525) % | SHAQ Alternative Disability Index, Percent Change from Baseline, Median (participants with SSc-RP [1]; [3]): −10.00% | SHAQ Alternative Disability Index, Change from Baseline, Max (participants with SSc-RP [1]; [4]): 0.38 | SHAQ Alternative Disability Index, Change from Baseline, Mean (participants with SSc-RP [1]; [4]): 0.063 | SHAQ Alternative Disability Index, Change from Baseline, Median (participants with SSc-RP [1]; [4]): 0.000 | SHAQ Alternative Disability Index, Change from Baseline, Min (participants with SSc-RP [1]; [4]): −0.13, | SHAQ Alternative Disability Index, Change from Baseline, Q1 (participants with SSc-RP [1]; [4]): −0.063, | SHAQ Alternative Disability Index, Change from Baseline, Q3 (participants with SSc-RP [1]; [4]): 0.188 | SHAQ Alternative Disability Index, Day 12, Max (participants with SSc-RP [1]; [4]): 1.25 | SHAQ Alternative Disability Index, Day 12, Mean (participants with SSc-RP [1]; [4]): 0.563 | SHAQ Alternative Disability Index, Day 12, Median (participants with SSc-RP [1]; [4]): 0.500 | SHAQ Alternative Disability Index, Day 12, Min (participants with SSc-RP [1]; [4]): 0.00, | SHAQ Alternative Disability Index, Day 12, Q1 (participants with SSc-RP [1]; [4]): 0.000, | SHAQ Alternative Disability Index, Percent Change from Baseline, Max (participants with SSc-RP [1]; [4]): 42.9 | SHAQ Alternative Disability Index, Percent Change from Baseline, Mean (participants with SSc-RP [1]; [4]): 15.87 | SHAQ Alternative Disability Index, Percent Change from Baseline, Median (participants with SSc-RP [1]; [4]): 15.87 | SHAQ Alternative Disability Index, Percent Change from Baseline, Min (participants with SSc-RP [1]; [4]): −11.1, | SHAQ Alternative Disability Index, Percent Change from Baseline, Q1 (participants with SSc-RP [1]; [4]): −11.11, | SHAQ Alternative Disability Index, Percent Change from Baseline, Q3 (participants with SSc-RP [1]; [4]): 42.86 | % change in Alternative Disability Index (participants with SSc-RP [1]; Cilnidipine 20 mg (n = 3)): −42% | SHAQ Alternative Disability Index, Change from Baseline, Max (participants with SSc-RP [1]; [5]): 0.25 | SHAQ Alternative Disability Index, Change from Baseline, Mean (participants with SSc-RP [1]; [5]): 0.000 | SHAQ Alternative Disability Index, Change from Baseline, Median (participants with SSc-RP [1]; [5]): −0.063 | SHAQ Alternative Disability Index, Change from Baseline, Min (participants with SSc-RP [1]; [5]): −0.13, | SHAQ Alternative Disability Index, Day 12, Max (participants with SSc-RP [1]; [5]): 0.50 | SHAQ Alternative Disability Index, Day 12, Mean (participants with SSc-RP [1]; [5]): 0.219 | SHAQ Alternative Disability Index, Day 12, Median (participants with SSc-RP [1]; [5]): 0.188 | SHAQ Alternative Disability Index, Day 12, Min (participants with SSc-RP [1]; [5]): 0.00, | SHAQ Alternative Disability Index, Day 12, Q1 (participants with SSc-RP [1]; [5]): 0.063, | SHAQ Alternative Disability Index, Day 12, Q3 (participants with SSc-RP [1]; [5]): 0.375 | SHAQ Alternative Disability Index, Percent Change from Baseline, Max (participants with SSc-RP [1]; [5]): 100.0 | SHAQ Alternative Disability Index, Percent Change from Baseline, Mean (participants with SSc-RP [1]; [5]): 5.56 | SHAQ Alternative Disability Index, Percent Change from Baseline, Median (participants with SSc-RP [1]; [5]): −33.33 | SHAQ Alternative Disability Index, Percent Change from Baseline, Min (participants with SSc-RP [1]; [5]): −50.0, | SHAQ Alternative Disability Index, Percent Change from Baseline, Q1 (participants with SSc-RP [1]; [5]): −50.00, | SHAQ Alternative Disability Index, Percent Change from Baseline, Q3 (participants with SSc-RP [1]; [5]): 100.00 | alternative disability index, Change from Baseline, Mean (participants with SSc-RP [1]; Day 12, dose cilnidipine 10 mg): 0.063 | alternative disability index, Change from Baseline, Median (participants with SSc-RP [1]; Day 12, dose cilnidipine 10 mg): 0.000 | alternative disability index, Percent Change from Baseline, Mean (participants with SSc-RP [1]; Day 12, dose cilnidipine 10 mg): 15.87% | alternative disability index, Percent Change from Baseline, Median (participants with SSc-RP [1]; Day 12, dose cilnidipine 10 mg): 15.87% | alternative disability index, Change from Baseline, Mean (participants with SSc-RP [1]; Day 12, dose cilnidipine 20 mg): −0.083 | alternative disability index, Change from Baseline, Median (participants with SSc-RP [1]; Day 12, dose cilnidipine 20 mg): −0.125 | alternative disability index, Percent Change from Baseline, Mean (participants with SSc-RP [1]; Day 12, dose cilnidipine 20 mg): −41.67% | alternative disability index, Percent Change from Baseline, Median (participants with SSc-RP [1]; Day 12, dose cilnidipine 20 mg): −41.67% | alternative disability index, In Clinic Visit (Day 12), Mean (participants with SSc-RP [1]; dose cilnidipine 10 mg): 0.563 | alternative disability index, In Clinic Visit (Day 12), Median (participants with SSc-RP [1]; dose cilnidipine 10 mg): 0.500 | alternative disability index, In Clinic Visit (Day 12), Mean (participants with SSc-RP [1]; dose cilnidipine 20 mg): 0.125 | alternative disability index, In Clinic Visit (Day 12), Median (participants with SSc-RP [1]; dose cilnidipine 20 mg): 0.125 | SHAQ Alternative Disability Index, Change from Baseline, Mean (participants with SSc-RP [1]; [6]): 0.021 | SHAQ Alternative Disability Index, Percent Change from Baseline, Median (participants with SSc-RP [1]; [6]): −10.00% | SHAQ Alternative Disability Index, Change from Baseline, Mean (participants with SSc-RP [1]; Pooled Cilnidipine 20 mg and Cilnidipine 20 mg + Tadalafil 5 mg (N = 8), Day 12, PP Population, Part A): −0.036 | SHAQ Alternative Disability Index, Change from Baseline, Mean (participants with SSc-RP [1]; [7]): 0.031 | SHAQ Alternative Disability Index, Change from Baseline, Mean (SD) (participants with SSc-RP [1]; [7]): 0.031 (0.1860) | SHAQ Alternative Disability Index, In-Clinic Visit (Day 12), Mean (SD) (participants with SSc-RP [1]; [7]): 0.391 (0.4884) | SHAQ Alternative Disability Index, Percent Change from Baseline, Mean (SD) (participants with SSc-RP [1]; [7]): 9.68 (61.446) % | SHAQ Alternative Disability Index, Percent Change from Baseline, Median (participants with SSc-RP [1]; [7]): −11.11% | % change in Alternative Disability Index (participants with SSc-RP [1]; Pooled Cilnidipine (n = 7)): −13% | % Δ from baseline, alternative disability mean (participants with SSc-RP [1]; Pooled cilnidipine (n=4)): −12.9% | SHAQ Visual Analogue Scale - Finger Ulcers, Change from Baseline, Mean (SD) (participants with SSc-RP [2]; [3]): −0.540 (1.0568) | SHAQ Visual Analogue Scale - Finger Ulcers, Change from Baseline, Median (participants with SSc-RP [2]; [3]): −0.100 | SHAQ Visual Analogue Scale - Finger Ulcers, In-Clinic Visit (Day 12), Mean (SD) (participants with SSc-RP [2]; [3]): 0.731 (1.4351) | SHAQ Visual Analogue Scale - Finger Ulcers, In-Clinic Visit (Day 12), Median (participants with SSc-RP [2]; [3]): 0.000 | SHAQ Visual Analogue Scale - Finger Ulcers, Percent Change from Baseline, Mean (SD) (participants with SSc-RP [2]; [3]): −33.91 (69.617) % | SHAQ Visual Analogue Scale - Finger Ulcers, Percent Change from Baseline, Median (participants with SSc-RP [2]; [3]): −36.11% | SHAQ Visual Analogue Scale - Finger Ulcers, Change from Baseline, Median (participants with SSc-RP [2]; [8]): −0.350 | SHAQ Visual Analogue Scale - Finger Ulcers, In-Clinic Visit (Day 12), Median (participants with SSc-RP [2]; [8]): 0.000 | SHAQ Visual Analogue Scale - Finger Ulcers, In-Clinic Visit (Day 12), Median (participants with SSc-RP [2]; Cilnidipine 10 mg, Day 12, PP Population Part A, sensitivity analysis): 0.000 | SHAQ Visual Analogue Scale - Finger Ulcers, Change from Baseline, Median (participants with SSc-RP [2]; [9]): 0.000 | SHAQ Visual Analogue Scale - Finger Ulcers, In-Clinic Visit (Day 12), Median (participants with SSc-RP [2]; [9]): 0.350 | % improvement in VAS Digital Ulcers (participants with SSc-RP [2]; Cilnidipine 20 mg (n = 3), SHAQ, mITT Part A): 35% | SHAQ Burden of Finger Ulcers, mean % change (participants with SSc-RP [2]; Cilnidipine 20 mg (n = 3), minus = improvement, Table A*): −17%
